Experimental data taken from PubChem BioAssay (NCI).
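Cultured in 96-well plates, cells were exposed to test compound for 48 hours across five concentrations. GI50 = concentration required for 50% inhibition of growth. Definition used: TGI = concentration required for complete inhibition of growth.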

Legend:
Test in all cases: NCI tumour cell line growth inhibition, 48 h
MDA-N = system: MDA-N
DMS 114 small cell lung = system: DMS 114 small cell lung
SNB-78 CNS = system: SNB-78 CNS
HOP-18 NSCLC = system: HOP-18 NSCLC
XF 498 CNS = system: XF 498 CNS
M19-MEL melanoma = system: M19-MEL melanoma
DMS 273 small cell lung = system: DMS 273 small cell lung
RXF-631 renal = system: RXF-631 renal
LXFL 529 NSCLC = system: LXFL 529 NSCLC
P388 leukemia = system: P388 leukemia
SN12K1 renal = system: SN12K1 renal

| Compound | TGI (MDA-N) | TGI (DMS 114 small cell lung) | TGI (SNB-78 CNS) | TGI (HOP-18 NSCLC) | TGI (XF 498 CNS) | TGI (M19-MEL melanoma) | TGI (DMS 273 small cell lung) | TGI (LXFL 529 NSCLC) | also measured |
| --- | --- | --- | --- | --- | --- | --- | --- | --- | --- |
| CC(=O)Nc1ccc(S(=O)(=O)N=S(C)C)cc1 | > 100 µM | – | – | – | – | – | – | – | – |
| O=C(CCC(=O)Nc1cccc(C(F)(F)F)c1)CC(=O)c1ccc2ccccc2c1 | – | > 100 µM | > 100 µM | > 100 µM | > 100 µM | > 100 µM | > 100 µM | > 100 µM | TGI (RXF-631 renal): > 100 µM |
| COc1cc(/C=C(\NC(=O)c2ccccc2)c2nc3ncncc3[nH]2)cc(OC)c1OC | – | – | > 100 µM | – | > 100 µM | > 100 µM | > 100 µM | > 100 µM | TGI (RXF-631 renal): > 100 µM |
| OC1CCCC2CCC[N-]C12.OC1CCCC2CCC[N-]C12.[O]=[V][OH] (centres undefined) | > 100 µM | – | – | – | – | – | – | – | GI50 (MDA-N): 5.86 µM |
| N#C/C(=C1\OC(=N)C(c2ccccc2)C1=O)c1ccccc1 (centres undefined) | – | > 82.2 µM | > 100 µM | 92.3 µM | 46.2 µM | 56.5 µM | > 100 µM | 36.3 µM | – |
| CC1=CP(=O)(c2ccccc2)C=C(C)C1=C(Cl)Cl (centres undefined) | – | 28.9 µM | 9.03 µM | 45.2 µM | 34.8 µM | 30.3 µM | 9.22 µM | 11.3 µM | – |
| COc1cc([N+](=O)[O-])c(S(=O)(=O)O)cc1-n1nc(C(=O)Nc2ccccc2)n[n+]1-c1cc(S(=O)(=O)[O-])c([N+](=O)[O-])cc1OC | > 100 µM | – | – | – | – | – | – | – | – |
| O=C1C=C2CCCC2C(C(=O)O)(C(=O)O)C1 (centres undefined) | – | > 100 µM | > 100 µM | – | > 100 µM | > 100 µM | > 100 µM | > 100 µM | TGI (RXF-631 renal): > 100 µM |
| CC1C=CC(C(N)C(=O)O)O1 (centres undefined) | – | > 100 µM | > 100 µM | – | > 100 µM | > 100 µM | > 100 µM | > 100 µM | – |
| Oc1ccc2ccccc2c1C=NCc1c(O)ccc2ccccc12 | > 100 µM | – | – | – | – | – | – | – | – |
| COc1cc2c(c(OC)c1OC)-c1ccc(SC)c(=O)cc1[C@@H](NC(=O)C(F)(F)F)CC2 | < 0.01 µM | – | – | > 100 µM | 2.37 µM | > 100 µM | > 100 µM | > 100 µM | – |
| O=C(N/C(=C\c1ccccc1O)c1nc2ccccc2[nH]1)c1ccccc1 | – | > 100 µM | > 100 µM | > 100 µM | > 100 µM | > 100 µM | > 100 µM | > 100 µM | – |
| C/C=C/C(=O)[O-].C/C=C/C(=O)[O-].N.N.N.N.[Co+3].[O-][Cl+3]([O-])([O-])[O-] | – | – | > 100 µM | – | – | – | > 100 µM | > 100 µM | GI50 (SNB-78 CNS): > 100 µM; GI50 (DMS 273 small cell lung): > 100 µM; GI50 (LXFL 529 NSCLC): > 100 µM |
| O=C(N=c1nc(NC(=O)c2ccccc2)ss1)c1ccccc1 | – | 90.3 µM | > 100 µM | – | – | > 100 µM | 89.1 µM | – | – |
| CC(=O)Nc1cc2cc(NS(=O)(=O)c3ccc(Cl)c(Cl)c3)ccc2oc1=O | > 100 µM | – | – | – | – | – | – | – | – |
| CCCCCCCCCCCCCCCC(=O)OCCOCCOCCOCCOCCOC(=O)CCCCCCCCCCCCCCC | – | > 100 µM | > 100 µM | > 100 µM | – | > 100 µM | > 100 µM | > 100 µM | TGI (RXF-631 renal): > 100 µM |

| Compound | TGI (MDA-N) | TGI (DMS 114 small cell lung) | TGI (SNB-78 CNS) | TGI (HOP-18 NSCLC) | TGI (XF 498 CNS) | TGI (M19-MEL melanoma) | TGI (DMS 273 small cell lung) | TGI (LXFL 529 NSCLC) | also measured |
| --- | --- | --- | --- | --- | --- | --- | --- | --- | --- |
| NC(Cc1c[nH]c2ccc([N+](=O)[O-])cc12)C(=O)O (centres undefined) | > 100 µM | – | – | – | – | – | – | – | – |
| Cc1ccc(-c2nc(-c3nccc4ccccc34)oc2-c2ccccc2)cc1 | > 100 µM | – | – | – | – | – | – | – | – |
| CCCCNC(=S)OCCC(C)CCCC(C)C (centres undefined) | – | > 100 µM | > 100 µM | > 100 µM | > 100 µM | > 100 µM | > 100 µM | > 100 µM | – |
| Cc1c2ccncc2c(C)c2c1sc1ccccc12 | 47.6 µM | – | – | – | – | – | – | – | – |
| Cc1ccc(N=C2N=C(N3CC(C)OC(C)C3)c3ccccc32)cc1 (centres undefined) | – | – | > 100 µM | – | 64.5 µM | > 100 µM | 77.1 µM | 57.6 µM | TGI (RXF-631 renal): > 100 µM |
| N#CC1(C#N)C=CC(=C2OCC3CCCN23)C=C1 (centres undefined) | – | > 100 µM | > 100 µM | > 100 µM | – | > 100 µM | > 100 µM | > 100 µM | – |
| C[N+](C)(C)c1cc[c]([Sn]([c]2ccc([N+](C)(C)C)cc2)([c]2ccc([N+](C)(C)C)cc2)[c]2ccc([N+](C)(C)C)cc2)cc1 | – | > 100 µM | – | > 100 µM | > 100 µM | > 100 µM | > 100 µM | > 100 µM | GI50 (DMS 114 small cell lung): > 100 µM; GI50 (HOP-18 NSCLC): > 100 µM; GI50 (XF 498 CNS): > 100 µM; GI50 (M19-MEL melanoma): > 100 µM; GI50 (DMS 273 small cell lung): > 100 µM; GI50 (RXF-631 renal): > 100 µM; TGI (RXF-631 renal): > 100 µM; GI50 (LXFL 529 NSCLC): > 100 µM |
| COc1ccc(O)cc1C(O)c1ccccc1 (centres undefined) | – | > 100 µM | > 100 µM | > 100 µM | > 100 µM | > 100 µM | > 100 µM | > 100 µM | – |
| O=C(Nc1ccccc1)OC1OC(COC(=O)c2ccccc2)C(OC(=O)c2ccccc2)C1OS(=O)(=O)c1ccc([N+](=O)[O-])cc1 (centres undefined) | > 100 µM | – | – | – | – | – | – | – | – |
| O=C1NC2(CCCCC2)C(=O)N1CCN(CCCl)CCCl | > 25 µM | 248 µM | > 245 µM | > 250 µM | 39.6 µM | > 250 µM | > 223 µM | – | TGI (P388 leukemia): 189 µM; TGI (SN12K1 renal): > 250 µM |
| COS(C)(=O)=O | > 2 µM | – | – | – | – | – | – | – | – |
| CCOC(=O)c1[nH]c2cc(OC)c(OC)cc2c1CN(C)C | – | > 100 µM | > 100 µM | – | – | – | – | – | – |
| COc1ccc(/C=C/C(=O)c2c(-c3ccccc3)nn(C)c(=O)c2N2CCOCC2)cc1 | – | > 100 µM | – | > 100 µM | 83.9 µM | > 100 µM | > 100 µM | > 100 µM | TGI (RXF-631 renal): > 100 µM |
| Nc1nc2c(-c3ccc([N+](=O)[O-])cc3)nnn2c2ccccc12 | – | – | > 100 µM | > 100 µM | > 100 µM | > 100 µM | > 100 µM | > 100 µM | – |
| O=C(Nc1ccc(Cl)cc1C(=O)O)c1ccc([N+](=O)[O-])cc1 | – | 36.8 µM | 67.2 µM | – | 90.1 µM | 55.9 µM | 67.1 µM | 48.7 µM | TGI (RXF-631 renal): > 100 µM |
| COc1ccc2c(c1)CCc1cc(OC)ccc1/[N+]([O-])=[N+]\2[O-] | 29.8 µM | – | – | – | – | – | – | – | – |
